Article PMC3724849 (PLoS ONE, 2013)
“And” between values parts separate entries of the source, which are not always exact repeats. Identical values can stand only once.

Legend:
[1] = tested on: CA1 pyramidal neurons of organotypic hippocampal brain slices; assay: Patch clamp of synaptic transmission in organotypic hippocampal slices; type: cell-based, rat
[2] = tested on: CA1 neurons of organotypic hippocampal brain slices; assay: Current-clamp intrinsic excitability in organotypic hippocampal slices; type: cell-based, rat; conditions: SAHA vs vehicle treated slices; p>0.05
Procedure: (§1) Interface cultures of hippocampal slices were made from 7–8 day old Sprague Dawley rats as previously described. Briefly, hippocampi were dissected in minimum essential medium (MEM; Invitrogen, Eugene, OR) with 15 mm HEPES and 10 mm Tris buffer (Invitrogen). Four-hundred micrometer slices were cultured on Millicell CM culture plate inserts (Millipore, Temecula, CA). The culture medium consisted of 50% MEM, 25% HBSS, and 25% horse serum, with 12.5 mM HEPES buffer and penicillin (100 U/ml)/streptomycin (100 µg/ml) (all from Invitrogen). Cultures were maintained in 5% CO2, at 37°C. Slices were maintained in vitro for one week prior to transfection.
Patch clamp recordings were made in oxygenated Artificial Cerebrospinal Fluid (ACSF) containing (in mM) 127 NaCl, 2.5 KCl, 1.3 MgSO4, 2.5 CaCl2, 1.25 Na2HPO4, 25 NaHCO3, 25 glucose. For voltage-clamp recordings patch pipette internal solution consisted of 120 Cs-methanesulfonate, 20 CsCl, 0.5 EGTA, 10 HEPES, 2.5 MgCl2, 4 Na2ATP, 0.3 NA3GTP, 10 Phosphocreatine, and 5 mM QX-314 Br. Miniature excitatory postsynaptic currents (mEPSCs) were recorded in the presence of 100 µM Picrotoxin (PTX) and 1 µM tetrodotoxin (TTX) at a holding potential of −70 mV. Miniature inhibitory postsynaptic currents (mIPSCs) were recorded in the presence of 10 µM 2,3-Dioxo-6-nitro-1,2,3,4-tetrahydrobenzo[f]quinoxaline-7-sulfonamide (NBQX), 50 µM D-(−)-2-Amino-5-phosphonopentanoic acid (D-AP5) and 1 µM TTX at a holding potential of 0 mV. Significance of differences between mean frequencies or amplitudes of mEPSCs or mIPSCs were assessed using a student’s t-test. […]. For experiments measuring open NMDAR block synaptic inputs were stimulated locally using a bipolar stimulation electrode and NMDAR EPSCs were isolated using NBQX and PTX and measured at −70 mV with external MgCl2 lowered to 0.5 mM. […] For synaptic plasticity experiments synaptic inputs were stimulated locally using a bipolar stimulation electrode and EPSCs were measured at −70 mV. […] Significance of differences in normalized EPSC amplitudes between treatment groups following plasticity induction were assessed using a student’s t-test. […] Action potential threshold was measured during the smallest depolarizing current injection steps that triggered spiking. Input resistance was calculated from the steady-state response to the smallest hyperpolarizing current injection steps to avoid contamination from hyperpolarization-induced inward currents (h-current). The h-current “sag” was measured based on the difference between the maximal and steady-state voltage responses to strong hyperpolarizing current injection steps. Significance of differences in all measures between treatment groups were assessed using a student’s t-test.

[3] = tested on: excitatory synapses in CA1 of organotypic hippocampal brain slices; assay: Synaptic plasticity (LTP, LTD) in organotypic hippocampal slices; type: cell-based, rat; conditions: p<0.05
Procedure: as §1
Patch clamp recordings were made in oxygenated Artificial Cerebrospinal Fluid (ACSF) containing (in mM) 127 NaCl, 2.5 KCl, 1.3 MgSO4, 2.5 CaCl2, 1.25 Na2HPO4, 25 NaHCO3, 25 glucose. For voltage-clamp recordings patch pipette internal solution consisted of 120 Cs-methanesulfonate, 20 CsCl, 0.5 EGTA, 10 HEPES, 2.5 MgCl2, 4 Na2ATP, 0.3 NA3GTP, 10 Phosphocreatine, and 5 mM QX-314 Br. Miniature excitatory postsynaptic currents (mEPSCs) were recorded in the presence of 100 µM Picrotoxin (PTX) and 1 µM tetrodotoxin (TTX) at a holding potential of −70 mV. […] Significance of differences between mean frequencies or amplitudes of mEPSCs or mIPSCs were assessed using a student’s t-test. […]

[4] = tested on: Tg2576 mice; assay: Tg2576 fear conditioning; type: in vivo, mouse; conditions: 25 mg/kg or 50 mg/kg SAHA i.p. daily vs vehicle; p>0.05
[5] = tested on: Tg2576 mice; assay: Open field test in Tg2576 mice; type: in vivo, mouse; conditions: dosing day 32, 30 minutes, mean ±SEM
[6] = Protein binding in plasma and brain; type: in vitro ADME
[7] = tested on: C57BL/6 mice; assay: SmartCube high-content behavioral phenotyping; type: in vivo, mouse; conditions: for discrimination index: p<0.001
Procedure: SmartCube experiments were conducted at Psychogenics, Inc (Tarrytown, NY). […] The SmartCube® system can measure numerous spontaneous behaviors and responses to challenges in the same testing environment. The hardware includes force sensors and a number of aversive stimuli used to elicit behavior. Three high-resolution video cameras provide constant 3D view of the mouse in the SmartCube® apparatus throughout the testing period. Digital videos of the subjects were processed with computer vision algorithms to extract over 2,000 independent measures including frequency and duration of behavioral states such as grooming, rearing, etc., and many other features obtained during the test session. […] The database comprises 14 classes of drugs with some of the major classes, such as the antidepressant class, comprising several subclasses with representatives of most of the drugs in the market.

[8] = Pharmacokinetic study after single i.p. injection
[9] = 0.5 µM SAHA for 3–4 days vs vehicle, p>0.05
[10] = single injection, valproate 225 mg/kg

## O=C(CCCCCCC(=O)Nc1ccccc1)NO [SAHA, Suberoylanilide hydroxamic acid]
[1]; 0.5 µM SAHA for 3–4 days vs vehicle, p<0.05
  median amplitude of mEPSCs: significantly increased
[1]; [9]
  amplitude of mIPSCs: did not significantly alter
  frequency of mIPSCs: did not significantly alter
  mEPSC frequency (median interval between events): no significant change
[1]; repetitive stimulation, SAHA vs vehicle treated slices, p>0.05
  rate of NMDAR EPSC blockade by MK-801: not different
[2]
  action potential threshold: unaltered
  input resistance: unaltered
  membrane sag (hyperpolarization-induced inward current): unaltered
  number of action potentials elicited by 500 ms current injection pulses: no difference
[3]; induction protocol subthreshold in vehicle treated slices
  LTP induction: readily evoked LTP
[3]; protocol that readily induced LTD in vehicle treated slices
  LTD induction: could not produce LTD
[4]
  percentage of time freezing in response to the context, altered context, or cue: no effect of treatment
  percentage of time spent freezing during conditioning: no effect of treatment
[5]; 25 mg/kg i.p. daily
  total distance traveled in the open field test: 39.6±6.1 m
[5]; 50 mg/kg i.p. daily
  total distance traveled in the open field test: 34.2±5.2 m
[6]; brain
  bound to protein, brain: 87.0%
[6]; plasma
  bound to protein, plasma: 40.7%
[7]; daily for 14 days, higher dose of SAHA (150 mg/kg)
  behavioral activity: not behaviorally active
[7]; daily for 14 days, lower dose of SAHA (50 mg/kg)
  drug class activity signature: not consistent with any known therapeutic signal
[7]; single injection of 50 mg/kg or 150 mg/kg SAHA
  behavioral activity: behaviorally inactive
[8]; 50 mg/kg i.p.
  AUClast of free SAHA in the brain: 0.07 µM·h
  Cmax of free SAHA in the brain: 110 ± 20 nM and 110 nM
[8]; 150 mg/kg i.p.
  AUClast of free SAHA in the brain: 0.36 µM·h
  Cmax of free SAHA in the brain: 100 ± 10 nM

## CCCC(CCC)C(=O)O [valproate]
[7]; daily for 14 days, valproate
  drug class activity signature: predominantly anxiolytic signature
  discrimination index: 98%
[7]; [10]
  drug class activity signature: strong anxiolytic signature and a mild psychostimulant signature
  discrimination index: 100%
